According to PubChem BioAssay (NCI):
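Exposure lasted 48 hours, with cells grown in 96-well plates and compounds tested at five concentrations. Here, GI50 denotes the concentration required for 50% inhibition of growth. TGI: total growth inhibition.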

What was measured:
Assay in all cases: inhibition of tumour cell growth, NCI panel, 48 h
[1] = system: MALME-3M melanoma
[2] = system: EKVX NSCLC
[3] = system: SF-268 CNS
[4] = system: RPMI-8226 leukemia
[5] = system: OVCAR-4 ovarian
[6] = system: NCI-H522 lung
[7] = system: A498 renal
[8] = system: SN12C renal
[9] = system: MDA-MB-231 breast
[10] = system: SW-620 colon
[11] = system: BT-549 breast
[12] = system: OVCAR-8 ovarian
[13] = system: NCI/ADR-RES ovarian
[14] = system: MDA-MB-468 breast
[15] = system: UACC-62 melanoma
[16] = system: SK-MEL-5 melanoma
[17] = system: T-47D breast
[18] = system: PC-3 prostate
[19] = system: HS 578T breast
[20] = system: TK-10 renal
[21] = system: SK-MEL-28 melanoma
[22] = system: COLO 205 colon
[23] = system: IGROV1 ovarian
[24] = system: SF-539 CNS
[25] = system: ACHN renal
[26] = system: SF-295 CNS
[27] = system: UO-31 renal
[28] = system: SK-MEL-2 melanoma
[29] = system: HOP-62 NSCLC
[30] = system: HT29 colon
[31] = system: HCT-15 colon
[32] = system: U251 CNS
[33] = system: RXF 393 renal
[34] = system: SR leukemia
[35] = system: 786-0 renal
[36] = system: OVCAR-3 ovarian
[37] = system: HCT-116 colon
[38] = system: CAKI-1 renal
[39] = system: SNB-75 CNS
[40] = system: SNB-19 CNS
[41] = system: HOP-92 NSCLC
[42] = system: NCI-H226 lung
[43] = system: OVCAR-5 ovarian
[44] = system: DU-145 prostate
[45] = system: MOLT-4 leukemia
[46] = system: K-562 leukemia
[47] = system: SK-OV-3 ovarian
[48] = system: NCI-H460 lung
[49] = system: M14 melanoma
[50] = system: NCI-H23 lung
[51] = system: A549 NSCLC
[52] = system: HCC-2998 colon
[53] = system: MCF7 breast
[54] = system: KM12 colon
[55] = system: LOX IMVI melanoma
[56] = system: MDA-MB-435
[57] = system: UACC-257 melanoma
[58] = system: CCRF-CEM leukemia
[59] = system: HL-60(TB) leukemia

`NS(=O)(=O)c1ccc(Nc2nc(N/N=C/c3cc(Br)c(O)c(Br)c3)nc(Nc3ccccc3)n2)cc1` was tested, and the GI50 [1] was 14.7 µM, the TGI [1] was 34.8 µM and the GI50 [2] was 21.4 µM. For the same compound, the TGI [2] was 69.2 µM, the GI50 [3] was 19.9 µM and the TGI [3] was 58.6 µM. For the same compound, the GI50 [4] was 22.8 µM, the TGI [4] was 93.5 µM and the GI50 [5] was 23.2 µM. The TGI [5] was 81.4 µM, the GI50 [6] was 16.8 µM and the TGI [6] was 42.4 µM. It also gave a GI50 [7] of 13.3 µM, a TGI [7] of 36.6 µM and a GI50 [8] of 15.6 µM. The TGI [8] was 32.1 µM, the GI50 [9] was 17.2 µM and the TGI [9] was 47.4 µM. For the same compound, the GI50 [10] was 17.2 µM, the TGI [10] was 42.4 µM and the GI50 [11] was 16.8 µM. The TGI [11] was 42.7 µM, the GI50 [12] was 26.9 µM and the TGI [12] was > 100 µM. The GI50 [13] was > 100 µM, the TGI [13] was > 100 µM and the GI50 [14] was 2.94 µM. The TGI [14] was 15.5 µM, the GI50 [15] was 14.5 µM and the TGI [15] was 28.3 µM. It also gave a GI50 [16] of 14.9 µM, a TGI [16] of 28.6 µM and a GI50 [17] of 7.39 µM. For the same compound, the TGI [17] was 27.3 µM, the GI50 [18] was 19.5 µM and the TGI [18] was 55.2 µM. For the same compound, the GI50 [19] was 7.76 µM, the TGI [19] was 81.3 µM and the GI50 [20] was 27.7 µM. It also gave a TGI [20] of 87 µM, a GI50 [21] of 18.1 µM and a TGI [21] of 40.6 µM. For the same compound, the GI50 [22] was 16 µM, the TGI [22] was 29.8 µM and the GI50 [23] was 18.5 µM. The TGI [23] was 42.2 µM, the GI50 [24] was 17.9 µM and the TGI [24] was 41.3 µM. For the same compound, the GI50 [25] was 24.8 µM, the TGI [25] was 93.8 µM and the GI50 [26] was 22.2 µM. For the same compound, the TGI [26] was 60.2 µM, the GI50 [27] was 26.7 µM and the TGI [27] was > 100 µM. For the same compound, the GI50 [28] was 15.7 µM, the TGI [28] was 38.1 µM and the GI50 [29] was 21.3 µM. The TGI [29] was 58.9 µM, the GI50 [30] was 19.6 µM and the TGI [30] was 49.1 µM. The GI50 [31] was 32.3 µM, the TGI [31] was > 100 µM and the GI50 [32] was 20 µM. For the same compound, the TGI [32] was 71 µM, the GI50 [33] was 14.7 µM and the TGI [33] was 32.8 µM. For the same compound, the GI50 [34] was 15.9 µM, the TGI [34] was > 100 µM and the GI50 [35] was 15.1 µM. It also gave a TGI [35] of 44.3 µM, a GI50 [36] of 21.4 µM and a TGI [36] of 63.1 µM. The GI50 [37] was 17.7 µM, the TGI [37] was 38.9 µM and the GI50 [38] was 24 µM. It also gave a TGI [38] of 85.7 µM, a GI50 [39] of 18.6 µM and a TGI [39] of 61.7 µM. The GI50 [40] was 14.2 µM, the TGI [40] was 27.7 µM and the GI50 [41] was 26.7 µM. The TGI [41] was 81.2 µM, the GI50 [42] was 26.5 µM and the TGI [42] was 98.2 µM. For the same compound, the GI50 [43] was 22.7 µM, the TGI [43] was 62.6 µM and the GI50 [44] was 16.1 µM. The TGI [44] was 30.2 µM, the GI50 [45] was 19.7 µM and the TGI [45] was 52.3 µM. For the same compound, the GI50 [46] was 23.4 µM, the TGI [46] was > 100 µM and the GI50 [47] was 21.3 µM. The TGI [47] was 61.9 µM, the GI50 [48] was 19.6 µM and the TGI [48] was 60.1 µM. It also gave a GI50 [49] of 18.8 µM, a TGI [49] of 45.7 µM and a GI50 [50] of 20.9 µM. It also gave a TGI [50] of 50.1 µM, a GI50 [51] of 21.8 µM and a TGI [51] of 67.5 µM. The GI50 [52] was 14.8 µM, the TGI [52] was 29.2 µM and the GI50 [53] was 16.9 µM. It also gave a TGI [53] of 45.4 µM, a GI50 [54] of 17.5 µM and a TGI [54] of 37.1 µM. For the same compound, the GI50 [55] was 15.8 µM, the TGI [55] was 30.4 µM and the GI50 [56] was 17.8 µM. The TGI [56] was 40.6 µM, the GI50 [57] was 20.6 µM and the TGI [57] was 47.9 µM. The GI50 [58] was 11.1 µM, the TGI [58] was 41.6 µM and the GI50 [59] was 22 µM. The TGI [59] was 60.9 µM.
